Reference: patent US20250296929A1, “NOVEL HEPATOSELECTIVE POLYADENYLATING POLYMERASES INHIBITORS AND THEIR METHOD OF USE” (BARUCH S. BLUMBERG INSTITUTE, priority 2021, published 2025)
pEC50: −log10 of the molar value. Several values for one entry are separate records, joined by “and”; a condition that tells them apart may be missing. Equal entries are not always repeated. Where two headings read alike, the source gives them in different places.

Experiments:
[1] = system: HBsAg secretion, HBV producing cell line HepG2.2.15; assay: Cellular assay: HBsAg inhibition in HBV producing cell line HepG2.2.15; format: cell-based; details: Hepatitis B virus
Description: Cellular assays method 1: Cellular assays: The HBV producing cell line HepG2.2.15 was cultured in DMEM/F12 containing 10% fetal bovine serum (FBS), 100 U/ml penicillin and 100 μg/ml streptomycin (Invitrogen). Compounds of the disclosure in DMSO was added into the culture medium when cell reached 100% confluence. The final concentration of DMSO was adjusted to 0.5%. Culture medium was replaced in two days and the cell was cultured for additional two days in the presence of compound. HBsAg inhibition in culture medium was then detected with AlphaLisa assay using anti-HBsAg antibodies of 10-H05H and 60C-CR2100RB from Fitzgerald Internantional. To examine the change of nucleic acid, total RNA was extracted with Trizol reagents and resolved in glyoxal agarose gel. HBV RNA blotted onto nitrocellulose membrane was measured with P32 labeled ribo-probe. Reduction and shortening of viral RNA indicates on target effect of the tested compound. […] HepG2.2.15 cells were first seeded in 96-well plate (Corning, Cat #: CLS3595) at density of 10,000 cells/well in 100 ul DMEM/F12 medium containing 10% FBS. When cells reached 100% confluence, treatment with compounds of the disclosure was initiated, and cells were cultured in the way as described for HBsAg inhibition study. Four days post drug treatment, 100 ul of CellTiter-Glo reagents (Promega, Cat #G7570) were added into each well and the mixture was incubated at 23° C. for 12 minutes, followed by the reading of luminescent signal in Tecan's Infinite 200 PRO. Compound IC50 on HBsAg and CC50 on cell viability were calculated using Graphpad prism. The IC50 and CC50 are defined as the compound concentration (or conditioned media log dilution) at which HBsAg secretion and cytotoxicity, respectively, are reduced by 50% compared to the no drug control.
Cellular assays method 2: HepG2.2.15 cells were seeded in duplicate into white, 96-well plates at 1.5×10^4 cells/well. The cells were treated with a 3-fold serial dilution series of the compounds in DMSO. The final DMSO concentration in all wells was 1%, and DMSO was used as no drug control. The HBsAg chemiluminescence immunoassay (CLIA) kit (Autobio Diagnostics Co., Zhengzhou, China) was used to measure the levels of secreted HBV antigens semi-quantitatively. For the detection, 50 μL/well culture supernatant was used and the procedure conducted as directed by manufacturer's instructions. The cytotoxicity was measured using CellTiter-Glo (Promega, Madison, WI, USA, catalogue no. G7571). Dose-response curves were generated and the IC50 and CC50 values were calculated using Graphpad prism. The IC50 and CC50 are defined as the compound concentration (or conditioned media log dilution) at which HBsAg secrection and cytotoxicity, respectively, are reduced by 50% compared to the no drug control.

OATP1B1 = target: T1, OATP1B1 (Homo sapiens, UniProt Q9Y6L6); assay: OATP1B1 transporter substrate uptake in OATP1B1-HEK293 cells; format: in vitro ADME; details: test concentration 1 μM
T1 construct: expressed in transfected cells; host or cells: HEK293
T1 sequence (Q9Y6L6 1-691): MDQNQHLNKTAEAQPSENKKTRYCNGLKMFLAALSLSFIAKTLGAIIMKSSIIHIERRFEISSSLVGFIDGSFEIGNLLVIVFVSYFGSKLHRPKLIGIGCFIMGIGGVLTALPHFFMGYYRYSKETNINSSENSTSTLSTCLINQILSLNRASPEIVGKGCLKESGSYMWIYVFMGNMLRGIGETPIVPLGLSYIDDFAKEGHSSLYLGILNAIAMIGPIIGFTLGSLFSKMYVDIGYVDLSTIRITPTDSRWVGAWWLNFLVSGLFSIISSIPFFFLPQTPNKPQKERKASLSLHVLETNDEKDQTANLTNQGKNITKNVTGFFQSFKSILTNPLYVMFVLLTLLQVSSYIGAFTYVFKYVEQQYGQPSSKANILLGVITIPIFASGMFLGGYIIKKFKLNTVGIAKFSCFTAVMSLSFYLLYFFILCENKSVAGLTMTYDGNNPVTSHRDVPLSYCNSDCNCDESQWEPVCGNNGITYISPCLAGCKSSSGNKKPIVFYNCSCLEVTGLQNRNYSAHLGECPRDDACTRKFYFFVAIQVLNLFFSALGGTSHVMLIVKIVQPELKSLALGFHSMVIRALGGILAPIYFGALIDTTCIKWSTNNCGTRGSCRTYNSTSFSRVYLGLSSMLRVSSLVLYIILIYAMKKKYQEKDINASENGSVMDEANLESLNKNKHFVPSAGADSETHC

[2] = Liver distribution after 8 mg/kg oral dose (liver vs plasma); format: in vivo, CD1 mice
Description: Protocol for pharmacokinetic and tissue distribution studies. The pharmacokinetics of the compounds was studied in CD1 mice after intravenous (IV) and oral gavage (PO) administration. Mouse PK studies was conducted at 3 mg/kg (IV) and 8 mg/kg (PO). Plasma samples obtained from dosed animals, at ten time points, including 5, 15 and 30 minutes and 1, 1.5, 2, 4, 6, 8 and 24 hr post-dose for processing to plasma, were prepared for analysis by means of a single step protein precipitation technique, by adding 200 μL of acetonitrile containing an IS mixture (labetalol, imipramine and diclofenac) to 50 μL aliquots of individual subject samples. Samples were mixed by vortex for homogeneity and then subjected to centrifugation at 4000 rpm for 10 min. The supernatant (200 μL) was collected and injected into the LC-MS/MS for analysis. Pharmacokinetic parameters will be calculated using established non-compartmental methods. The liver distribution of the compounds was studied in the PO group and liver tissues were collected at each time point after PO administration. Accurately weighed whole liver tissues were collected in a 50 mL tube, and 3 volumes per weight of water will be added. Tissue samples were homogenized and 50 μL of the homogenates will be processed along with plasma samples as described above.

SMILES: COc1cc2c(cc1OCCCCCCC(=O)O)C[C@@H](C(C)C)n1cc(C(=O)O)c(=O)cc1-2 [Example 6, (S)-9-((6-carboxyhexyl)oxy)-6-isopropyl-10-methoxy-2-oxo-6,7-dihydro-2H-pyrido[2,1-a]isoquinoline-3-carboxylic acid]
- pEC50 [1]: 7.64
- Uptake Ratio (−/+Inhibitor) (OATP1B1; OATP1B1-HEK293 cells, inhibitor Rifamycin SV): 11.17
- Uptake Ratio (Transporter(−Inhibitor)/Mock(−Inhibitor)) (OATP1B1; OATP1B1-HEK293 vs Mock (normal HEK293)): 18.99
- Liver concentration ([2]; 0.25 h, individual animals): 428 ng/g and 372 ng/g and 199 ng/g
- Ratio (liver/plasma) ([2]; 0.25 h, individual animals): 41.6 and 19.1 and 10.8
- Liver concentration ([2]; 0.5 h, individual animals): 241 ng/g and 321 ng/g
- Ratio (liver/plasma) ([2]; 0.5 h, individual animals): 24.3 and 35.6
- Liver concentration ([2]; 1 h, individual animals): 237 ng/g and 404 ng/g
- Ratio (liver/plasma) ([2]; 1 h, individual animals): 39.9 and 43.6
- Liver concentration ([2]; 2 h, individual animals): 377 ng/g and 299 ng/g and 108 ng/g
- Ratio (liver/plasma) ([2]; 2 h, individual animals): 65.8 and 47.3
- Liver concentration ([2]; 4 h, individual animals): 128 ng/g and 179 ng/g
- Ratio (liver/plasma) ([2]; 4 h, individual animals): 42.2 and 43.5
- Liver concentration ([2]; 6 h, individual animals): 130 ng/g and 43.2 ng/g and 55.6 ng/g
- Ratio (liver/plasma) ([2]; 6 h, individual animals): 28.2 and 23.0
- Liver concentration ([2]; 8 h, individual animals): 106 ng/g and 37.6 ng/g and 45.6 ng/g
- Ratio (liver/plasma) ([2]; 8 h, individual animals): 17.8
- concentration at 0.5 h ([2]; CD1, mouse, liver, oral, 8 mg/kg, 0.5 h, individual animals): 366 ng/g
- concentration at 1 h ([2]; CD1, mouse, liver, oral, 8 mg/kg, 1 h, individual animals): 259 ng/g
- concentration at 4 h ([2]; CD1, mouse, liver, oral, 8 mg/kg, 4 h, individual animals): 106 ng/g
- Kp at 0.25 h ([2]; CD1, mouse, liver/plasma, oral, 8 mg/kg, 0.25 h, mean, read-out: Ratio (liver/plasma) Mean): 23.8
- Kp at 0.5 h ([2]; CD1, mouse, liver/plasma, oral, 8 mg/kg, 0.5 h, individual animals, read-out: Ratio (liver/plasma)): 38.9
- Kp at 0.5 h ([2]; CD1, mouse, liver/plasma, oral, 8 mg/kg, 0.5 h, mean, read-out: Ratio (liver/plasma) Mean): 32.9
- Kp at 1 h ([2]; CD1, mouse, liver/plasma, oral, 8 mg/kg, 1 h, individual animals, read-out: Ratio (liver/plasma)): 63.1
- Kp at 1 h ([2]; CD1, mouse, liver/plasma, oral, 8 mg/kg, 1 h, mean, read-out: Ratio (liver/plasma) Mean): 48.9
- Kp at 2 h ([2]; CD1, mouse, liver/plasma, oral, 8 mg/kg, 2 h, individual animals, read-out: Ratio (liver/plasma)): 69.6
- Kp at 2 h ([2]; CD1, mouse, liver/plasma, oral, 8 mg/kg, 2 h, mean, read-out: Ratio (liver/plasma) Mean): 60.9
- Kp at 4 h ([2]; CD1, mouse, liver/plasma, oral, 8 mg/kg, 4 h, individual animals, read-out: Ratio (liver/plasma)): 28.9
- Kp at 4 h ([2]; CD1, mouse, liver/plasma, oral, 8 mg/kg, 4 h, mean, read-out: Ratio (liver/plasma) Mean): 38.2
- Kp at 6 h ([2]; CD1, mouse, liver/plasma, oral, 8 mg/kg, 6 h, individual animals, read-out: Ratio (liver/plasma)): 45.6
- Kp at 6 h ([2]; CD1, mouse, liver/plasma, oral, 8 mg/kg, 6 h, mean, read-out: Ratio (liver/plasma) Mean): 32.3
- Kp at 8 h ([2]; CD1, mouse, liver/plasma, oral, 8 mg/kg, 8 h, individual animals, read-out: Ratio (liver/plasma)): 15.9
- Kp at 8 h ([2]; CD1, mouse, liver/plasma, oral, 8 mg/kg, 8 h, mean, read-out: Ratio (liver/plasma) Mean): 16.8
